{
  "source": "patent US11147778B2",
  "about": "“Siderophore-polymer conjugates for increasing bacterial sensitivity to antibiotics” (Wisconsin Alumni Research Foundation, priority 2016, dated 2021)",
  "origin": "cited, not measured here",
  "set-up_in_all_cases": "key: S = susceptible; I = intermediate; R = resistant",
  "key": {"[1]": {"system": "Pseudomonas aeruginosa 3072", "settings": "strain 3072; cited from earlier work"}, "[2]": {"system": "Pseudomonas aeruginosa 3076", "settings": "strain 3076; cited from earlier work"}, "[3]": {"system": "Pseudomonas aeruginosa 3071", "settings": "strain 3071; cited from earlier work"}, "[4]": {"system": "Pseudomonas aeruginosa 24530", "settings": "strain 24530; cited from earlier work"}, "[5]": {"system": "Pseudomonas aeruginosa 26975", "settings": "strain 26975; cited from earlier work"}, "[6]": {"system": "Pseudomonas aeruginosa 9139", "settings": "strain 9139; cited from earlier work"}, "[7]": {"system": "Pseudomonas aeruginosa 3068", "settings": "strain 3068; cited from earlier work"}, "[8]": {"system": "Pseudomonas aeruginosa 823", "settings": "strain 823; cited from earlier work"}, "[9]": {"system": "Pseudomonas aeruginosa 3070", "settings": "strain 3070; cited from earlier work"}, "[10]": {"system": "Pseudomonas aeruginosa 2638", "settings": "strain 2638; cited from earlier work"}},
  "data": [
    {"molecule": "CC(C)(O/N=C(\\C(=O)N[C@@H]1C(=O)N2C(C(=O)[O-])=C(C[n+]3ccccc3)CS[C@H]12)c1csc(N)n1)C(=O)O", "note": "[CAZ, ceftazidime]", "values": [
      {"measurement": "Phenotype (drug resistance profile)", "setting": "[1]", "value": "S"},
      {"measurement": "Phenotype (drug resistance profile)", "setting": "[2]", "value": "R"},
      {"measurement": "Phenotype (drug resistance profile)", "setting": "[3]", "value": "CAZ-R, TZP-R, CIP-R"},
      {"measurement": "Phenotype (drug resistance profile)", "setting": "[4]", "value": "R"},
      {"measurement": "Phenotype (drug resistance profile)", "setting": "[5]", "value": "R"},
      {"measurement": "Phenotype (drug resistance profile)", "setting": "[6]", "value": "S"},
      {"measurement": "Phenotype (drug resistance profile)", "setting": "[7]", "value": "S"},
      {"measurement": "Phenotype (drug resistance profile)", "setting": "[8]", "value": "R"},
      {"measurement": "Phenotype (drug resistance profile)", "setting": "[9]", "value": "R"},
      {"measurement": "Phenotype (drug resistance profile)", "setting": "[10]", "value": "CAZ-R, TZP-R, CIP-R, TOB-R"}
    ]},
    {"molecule": "O=C(O)c1cn(C2CC2)c2cc(N3CCNCC3)c(F)cc2c1=O", "note": "[CIP, ciprofloxacin]", "values": [
      {"measurement": "Phenotype (drug resistance profile)", "setting": "[1]", "value": "R"},
      {"measurement": "Phenotype (drug resistance profile)", "setting": "[2]", "value": "R"},
      {"measurement": "Phenotype (drug resistance profile)", "setting": "[3]", "value": "CAZ-R, TZP-R, CIP-R"},
      {"measurement": "Phenotype (drug resistance profile)", "setting": "[4]", "value": "S"},
      {"measurement": "Phenotype (drug resistance profile)", "setting": "[5]", "value": "S"},
      {"measurement": "Phenotype (drug resistance profile)", "setting": "[6]", "value": "S"},
      {"measurement": "Phenotype (drug resistance profile)", "setting": "[7]", "value": "R"},
      {"measurement": "Phenotype (drug resistance profile)", "setting": "[8]", "value": "S"},
      {"measurement": "Phenotype (drug resistance profile)", "setting": "[9]", "value": "R"},
      {"measurement": "Phenotype (drug resistance profile)", "setting": "[10]", "value": "CAZ-R, TZP-R, CIP-R, TOB-R"}
    ]},
    {"molecule": "C[C@@H](O)[C@H]1C(=O)N2C(C(=O)O)=C(S[C@@H]3CN[C@H](CNS(N)(=O)=O)C3)[C@H](C)[C@H]12", "note": "[DOR, doripenem]", "values": [
      {"measurement": "Phenotype (drug resistance profile)", "setting": "[1]", "value": "R"},
      {"measurement": "Phenotype (drug resistance profile)", "setting": "[2]", "value": "R"},
      {"measurement": "Phenotype (drug resistance profile)", "setting": "[3]", "value": "DOR-R, IPM-R, MEM-R, FEP-R,"},
      {"measurement": "Phenotype (drug resistance profile)", "setting": "[4]", "value": "DOR-R, IPM-R, MEM-R, FEP-R,"},
      {"measurement": "Phenotype (drug resistance profile)", "setting": "[5]", "value": "S"},
      {"measurement": "Phenotype (drug resistance profile)", "setting": "[6]", "value": "S"},
      {"measurement": "Phenotype (drug resistance profile)", "setting": "[7]", "value": "DOR-R, IPM-R, MEM-R, FEP-R,"},
      {"measurement": "Phenotype (drug resistance profile)", "setting": "[8]", "value": "S"},
      {"measurement": "Phenotype (drug resistance profile)", "setting": "[9]", "value": "R"},
      {"measurement": "Phenotype (drug resistance profile)", "setting": "[10]", "value": "DOR-R, IPM-R, MEM-R, FEP-R,"}
    ]},
    {"molecule": "CO/N=C(\\C(=O)N[C@@H]1C(=O)N2C(C(=O)[O-])=C(C[N+]3(C)CCCC3)CS[C@H]12)c1csc(N)n1", "note": "[FEP, cefepime]", "values": [
      {"measurement": "Phenotype (drug resistance profile)", "setting": "[1]", "value": "S"},
      {"measurement": "Phenotype (drug resistance profile)", "setting": "[2]", "value": "I"},
      {"measurement": "Phenotype (drug resistance profile)", "setting": "[3]", "value": "DOR-R, IPM-R, MEM-R, FEP-R,"},
      {"measurement": "Phenotype (drug resistance profile)", "setting": "[4]", "value": "DOR-R, IPM-R, MEM-R, FEP-R,"},
      {"measurement": "Phenotype (drug resistance profile)", "setting": "[5]", "value": "R"},
      {"measurement": "Phenotype (drug resistance profile)", "setting": "[6]", "value": "R"},
      {"measurement": "Phenotype (drug resistance profile)", "setting": "[7]", "value": "DOR-R, IPM-R, MEM-R, FEP-R,"},
      {"measurement": "Phenotype (drug resistance profile)", "setting": "[8]", "value": "R"},
      {"measurement": "Phenotype (drug resistance profile)", "setting": "[9]", "value": "I"},
      {"measurement": "Phenotype (drug resistance profile)", "setting": "[10]", "value": "DOR-R, IPM-R, MEM-R, FEP-R,"}
    ]},
    {"molecule": "C[C@@H](O)[C@H]1C(=O)N2C(C(=O)O)=C(S[C@@H]3CN[C@H](C(=O)N(C)C)C3)[C@H](C)[C@H]12", "note": "[MEM, meropenem]", "values": [
      {"measurement": "Phenotype (drug resistance profile)", "setting": "[1]", "value": "R"},
      {"measurement": "Phenotype (drug resistance profile)", "setting": "[2]", "value": "R"},
      {"measurement": "Phenotype (drug resistance profile)", "setting": "[3]", "value": "DOR-R, IPM-R, MEM-R, FEP-R,"},
      {"measurement": "Phenotype (drug resistance profile)", "setting": "[4]", "value": "DOR-R, IPM-R, MEM-R, FEP-R,"},
      {"measurement": "Phenotype (drug resistance profile)", "setting": "[5]", "value": "S"},
      {"measurement": "Phenotype (drug resistance profile)", "setting": "[6]", "value": "S"},
      {"measurement": "Phenotype (drug resistance profile)", "setting": "[7]", "value": "DOR-R, IPM-R, MEM-R, FEP-R,"},
      {"measurement": "Phenotype (drug resistance profile)", "setting": "[8]", "value": "S"},
      {"measurement": "Phenotype (drug resistance profile)", "setting": "[9]", "value": "R"},
      {"measurement": "Phenotype (drug resistance profile)", "setting": "[10]", "value": "DOR-R, IPM-R, MEM-R, FEP-R,"}
    ]},
    {"molecule": "NC[C@H]1O[C@H](O[C@H]2[C@H](O)[C@@H](O[C@H]3O[C@H](CO)[C@@H](O)[C@H](N)[C@H]3O)[C@H](N)C[C@@H]2N)[C@H](N)C[C@@H]1O", "note": "[TOB, tobramycin]", "values": [
      {"measurement": "Phenotype (drug resistance profile)", "setting": "[1]", "value": "R"},
      {"measurement": "Phenotype (drug resistance profile)", "setting": "[2]", "value": "S"},
      {"measurement": "Phenotype (drug resistance profile)", "setting": "[4]", "value": "S"},
      {"measurement": "Phenotype (drug resistance profile)", "setting": "[5]", "value": "R"},
      {"measurement": "Phenotype (drug resistance profile)", "setting": "[6]", "value": "S"},
      {"measurement": "Phenotype (drug resistance profile)", "setting": "[8]", "value": "S"},
      {"measurement": "Phenotype (drug resistance profile)", "setting": "[10]", "value": "CAZ-R, TZP-R, CIP-R, TOB-R"}
    ]}
  ]
}
